Results from BindingDB's records for doi:10.1021/jm00049a020 (Pharmacia-Farmitalia Carlo Erba, 1994).

Target: T1, Neutrophil elastase (Homo sapiens, UniProt P08246)
T1 sequence (P08246 whole entry): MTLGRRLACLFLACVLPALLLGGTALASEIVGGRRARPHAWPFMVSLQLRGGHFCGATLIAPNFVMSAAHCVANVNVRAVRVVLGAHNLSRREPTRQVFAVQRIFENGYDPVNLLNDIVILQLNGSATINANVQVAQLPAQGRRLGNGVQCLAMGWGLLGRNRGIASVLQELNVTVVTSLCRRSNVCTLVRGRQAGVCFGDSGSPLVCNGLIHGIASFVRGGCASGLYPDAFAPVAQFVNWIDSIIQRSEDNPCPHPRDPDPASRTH
Assay: Tested for the rate constant against Human Leukocyte Elastase (HLE) inactivation
Details: read-out: kon (M-1-s-1)

Q: For `CO[C@H]1C(=O)N2C(C(=O)N3CCCC3C(=O)O)=C(COC(C)=O)CS(=O)(=O)[C@H]12` (stereo partly drawn) [1-(3-Acetoxymethyl-7-methoxy-5,5,8-trioxo-5lambda*6*-thia-1-aza-bicyclo[4.2.0]oct-2-ene-2-carbonyl)-pyrrolidine-2-carboxylic acid(L-658,758)], which kon is on record?
A: The kon was 1800 M⁻¹ s⁻¹.
